This experiment deals with hepatocellular carcinoma cell line Hub-7. Put plainly: Cell proliferation assay, Hub-7 (CELL-TITER GLO). Format: cell-based. Conditions: Hub-7 cells, 24 h incubation, cell viability by CELL-TITER GLO, top concentration 10 μM; read-out: EC50, Inhibition of Hub-7 Cell Proliferation. As to the method: The activity of a compound was determined in a cell proliferation assay using the hepatocellular carcinoma cell line Hub-7. Cells (4,000 cells per well) were seeded in a 96-well tissue culture plate. After incubated overnight, the compound was added at predetermined concentrations, starting with 10 μM and followed by 3-fold serial dilution. After the cells were incubated for 24 h, cell viability was determined using a CELL-TITER GLO® assay. The CELL-TITER GLO® reagent (50 μL) was added to each well and the luminescence was measured by a multimode microplate reader after a brief period of shaking. EC50 values were determined for the compound. The results are summarized in Table 1, wherein A represents a value no greater than 200 nM, B represents a value greater than 200 nM but no greater than 1 μM, C represents a value greater than 1 μM but no greater than 5 μM, and D represents a value greater than 5 μM.
For `C#Cc1nc(NC(=O)NCc2ccc(-c3cccc4c3cnn4C)cc2)cs1` [Compound A16, 1-(2-Ethynylthiazol-4-yl)-3-(4-(1-methyl-1H-indazol-4-yl)benzyl)urea], the EC50 is at most 200 nM.

Turning to `C#Cc1nc(NC(=O)NCc2ccc(-c3cc(C(=O)OC)cc4c3cnn4C)cc2)cs1` [Compound A22, Methyl 4-(4-((3-(2-ethynylthiazol-4-yl)ureido)methyl)phenyl)-1-methyl-1H-indazole-6-carboxylate], the EC50 was at most 200 nM.

For `C#Cc1nc(C(=O)N2CCN(c3ccc([N+](=O)[O-])cc3)CC2)cs1` [Compound D27, (2-Ethynylthiazol-4-yl)(4-(4-nitrophenyl)piperazin-1-yl)methanone], the EC50 is at most 200 nM.

In the case of `C#Cc1nc(C(=O)NCCc2ccccc2Cl)cs1` [Compound C106, N-(2-Chlorophenethyl)-2-ethynylthiazole-4-carboxamide], the EC50 is 200 to 1000 nM.

Take `C#Cc1nc(C(=O)NCCc2ccc(-c3cccc4c3CC(=O)N4)cc2)cs1` [Compound C48, 2-Ethynyl-N-(4-(2-oxoindolin-4-yl)phenethyl)thiazole-4-carboxamide]: the EC50 was 200 to 1000 nM.

Consider `C#Cc1nc(C(=O)NCc2ccc([N+](=O)[O-])cc2)cs1` [Compound C103, 2-Ethynyl-N-(4-nitrobenzyl)thiazole-4-carboxamide], for which the EC50 is at most 200 nM.

Take `C#Cc1nc(NC(=O)[C@H](N)Cc2ccccc2C#N)cs1` [Compound E5, (R)-2-Amino-3-(2-cyanophenyl)-N-(2-ethynylthiazol-4-yl)propenamide]: the EC50 was at most 200 nM.

On to `C#Cc1nc(C(=O)NCc2ccc(N)cc2)cs1` [Compound C118, N-(4-Aminobenzyl)-2-ethynylthiazole-4-carboxamide], for which the EC50 is 200 to 1000 nM.

`C#Cc1nc(C(=O)NCc2ccc(-c3cccnc3)cc2)cs1` [Compound C93, 2-Ethynyl-N-(4-(pyridin-3-yl)benzyl)thiazole-4-carboxamide]: the EC50 lay within 200 to 1000 nM.

In the case of `C#Cc1nc(C(=O)NCCc2cccc(-c3cccnc3)c2)cs1` [Compound C38, 2-Ethynyl-N-(3-(pyridin-3-yl)phenethyl)thiazole-4-carboxamide], the EC50 was in the range of 1000 to 5000 nM.

Turning to `C#Cc1nc(C(=O)NCCc2cccc(S(C)(=O)=O)c2)cs1` [Compound C105, 2-Ethynyl-N-(3-(methylsulfonyl)phenethyl)thiazole-4-carboxamide], the EC50 lay within 1000 to 5000 nM.

Take `C#Cc1nc(C(=O)NC2(c3cccc(Cl)c3)CC2)cs1` [Compound C68, N-(1-(3-Chlorophenyl)cyclopropyl)-2-ethynylthiazole-4-carboxamide]: the EC50 lay in the range of 200 to 1000 nM.

Take `C#Cc1nc(C(=O)NCc2ccccc2C#N)cs1` [Compound C63, N-(2-Cyanobenzyl)-2-ethynylthiazole-4-carboxamide]: the EC50 was at most 200 nM.

As to `C#Cc1nc(C(=O)N2CCN(c3ccc(-c4cccc5[nH]ncc45)cc3)CC2)cs1` [Compound D25, (4-(4-(1H-Indazol-4-yl)phenyl)piperazin-1-yl)(2-ethynylthiazol-4-yl)methanone], the EC50 was at most 200 nM.

Take `C#Cc1nc(C(=O)NCCc2ccc(-c3cccc(C(=O)NC)c3)cc2)cs1` [Compound C4, 2-Ethynyl-N-(2-(3′-(methylcarbamoyl)-[1,1′-biphenyl]-4-yl)ethyl)thiazole-4-carboxamide]: the EC50 was at most 200 nM.

`C#Cc1nc(C(=O)NCCc2ccc(-c3cccnc3)cc2)cs1` [Compound C79, 2-Ethynyl-N-(4-(pyridin-3-yl)phenethyl)thiazole-4-carboxamide]: the EC50 is 200 to 1000 nM.

For the molecule `C#Cc1nc(C(=O)NCc2ccc(C#N)cc2)cs1` [Compound C104, N-(4-Cyanobenzyl)-2-ethynylthiazole-4-carboxamide], the EC50 is 200 to 1000 nM.

Regarding `C#Cc1nc(C(=O)NCc2ccccc2OC)cs1` [Compound C144, 2-Ethynyl-N-(2-methoxybenzyl)thiazole-4-carboxamide], the EC50 was 1000 to 5000 nM.

`C#Cc1nc(C(=O)NCc2cccc3ccccc23)cs1` [Compound C113, 2-Ethynyl-N-(naphthalen-1-ylmethyl)thiazole-4-carboxamide]: the EC50 was at most 200 nM.

In the case of `C#Cc1nc(C(=O)N2CCC(O)(c3ccc(-c4cccc5ncsc45)cc3)CC2)cs1` [Compound D14, (4-(4-(Benzo[d]thiazol-7-yl)phenyl)-4-hydroxypiperidin-1-yl)(2-ethynylthiazol-4-yl)methanone], the EC50 was at most 200 nM.

Turning to `C#Cc1nc(NC(=O)[C@@H](N)Cc2ccccc2)cs1` [Compound E2, (S)-2-Amino-N-(2-ethynylthiazol-4-yl)-3-phenylpropanamide], the EC50 lay within 1000 to 5000 nM.

`C#Cc1nc(C(=O)N2CCCCC2CCO)cs1` (stereo not drawn) [Compound D32, (2-Ethynylthiazol-4-yl)(2-(2-hydroxyethyl)piperidin-1-yl)methanone]: the EC50 is above 5000 nM.

On to `C#Cc1nc(C(=O)NCc2cccc([N+](=O)[O-])c2)cs1` [Compound C107, 2-Ethynyl-N-(3-nitrobenzyl)thiazole-4-carboxamide], for which the EC50 lay in the range of 200 to 1000 nM.

Turning to `C#Cc1nc(C(=O)NCc2ccc(-c3ccn(C)n3)cc2)cs1` [Compound C54, 2-Ethynyl-N-(4-(1-methyl-1H-pyrazol-3-yl)benzyl)thiazole-4-carboxamide], the EC50 lay within 200 to 1000 nM.

As for `C#Cc1nc(C(=O)NCCc2ccc(-c3cccc4c3CN(C)C4=O)cc2)cs1` [Compound C22, 2-Ethynyl-N-(4-(2-methyl-1-oxoisoindolin-4-yl)phenethyl)thiazole-4-carboxamide], the EC50 lay within 200 to 1000 nM.

As to `C#Cc1nc(C(=O)NCc2ccccc2)cn1C` [Compound C98, N-Benzyl-2-ethynyl-1-methyl-1H-imidazole-4-carboxamide], the EC50 is above 5000 nM.

Take `C#Cc1nc(C(=O)NCc2ccc(-c3cccc4[nH]ccc34)cc2)cs1` [Compound C28, N-(4-(1H-Indol-4-yl)benzyl)-2-ethynylthiazole-4-carboxamide]: the EC50 lay in the range of 1000 to 5000 nM.

Consider `C#Cc1nc(C(=O)N2CC(c3ccc(-c4cccc5ncsc45)cc3)C2)cs1` [Compound D13, (3-(4-(Benzo[d]thiazol-7-yl)phenyl)azetidin-1-yl)(2-ethynylthiazol-4-yl)-methanone], for which the EC50 was at most 200 nM.

As to `C#Cc1nc(NC(=O)NCc2ccc(-c3c(C(N)=O)ccc4ncsc34)cc2)cs1` [Compound A19, 7-(4-((3-(2-Ethynylthiazol-4-yl)ureido)methyl)phenyl)benzo[d]thiazole-6-carboxamide], the EC50 is 200 to 1000 nM.

For the molecule `C#Cc1nc(C(=O)NCCc2ccc(-c3ccn(C)n3)cc2)cs1` [Compound C41, 2-Ethynyl-N-(4-(1-methyl-1H-pyrazol-3-yl)phenethyl)thiazole-4-carboxamide], the EC50 was 1000 to 5000 nM.

For `C#Cc1nc(C(=O)N2CCN(c3ccc(-c4cccc5nn(C)cc45)cc3)CC2)cs1` [Compound D23, (2-Ethynylthiazol-4-yl)(4-(4-(2-methyl-2H-indazol-4-yl)phenyl)piperazin-1-yl)-methanone], the EC50 is at most 200 nM.

As for `C#Cc1nc(C(=O)N2CCC(c3ccc(-c4cccc5nn(C)cc45)cc3)CC2)cs1` [Compound D19, (2-Ethynylthiazol-4-yl)(4-(4-(2-methyl-2H-indazol-4-yl)phenyl)piperidin-1-yl)-methanone], the EC50 is at most 200 nM.

Consider `C#Cc1nc(NC(=O)NCc2ccc(-c3cc(C(=O)NC)cc4c3cnn4C)cc2)cs1` [Compound A21, 4-(4-((3-(2-Ethynylthiazol-4-yl)ureido)methyl)phenyl)-N,1-dimethyl-1H-indazole-6-carboxamide], for which the EC50 lay within 200 to 1000 nM.

With `C#Cc1nc(C(=O)NCCc2ccc(-c3cnn(C)c3)cc2)cs1` [Compound C75, 2-Ethynyl-N-(4-(1-methyl-1H-pyrazol-4-yl)phenethyl)thiazole-4-carboxamide], the EC50 is 200 to 1000 nM.

On to `C#Cc1nc(C(=O)NCCc2ccc(Br)cc2)cs1` [Compound C80, N-(4-Bromophenethyl)-2-ethynylthiazole-4-carboxamide], for which the EC50 is 200 to 1000 nM.

For `C#Cc1nc(C(=O)NCc2ccccc2-c2ccccc2)cs1` [Compound C112, N-([1,1′-Biphenyl]-2-ylmethyl)-2-ethynylthiazole-4-carboxamide], the EC50 lay in the range of 200 to 1000 nM.

Consider `C#Cc1nc(NC(=O)NCc2ccc(-c3cccc4c3S(=O)(=O)CC4O)cc2)cs1` (stereo not drawn) [Compound A2, 1-(2-Ethynylthiazol-4-yl)-3-(4-(3-hydroxy-1,1-dioxido-2,3-dihydrobenzo[b]-thiophen-7-yl)benzyl)urea], for which the EC50 fell in the range of 1000 to 5000 nM.

Take `C#Cc1nc(C(=O)N2CCN(c3ccc(-c4cc(C(N)=O)cc5ncsc45)cc3)CC2)cs1` [Compound D5, 7-(4-(4-(2-Ethynylthiazole-4-carbonyl)piperazin-1-yl)phenyl)benzo[d]thiazole-5-carboxamide]: the EC50 was in the range of 1000 to 5000 nM.

With `C#Cc1nc(C(=O)NCCc2ccc(NS(C)(=O)=O)cc2)cs1` [Compound C99, 2-Ethynyl-N-(4-(methylsulfonamido)phenethyl)thiazole-4-carboxamide], the EC50 fell in the range of 1000 to 5000 nM.

`C#Cc1nc(C(=O)NCCc2ccc(-c3ccc4scnc4c3)cc2)cs1` [Compound C25, N-(4-(Benzo[d]thiazol-5-yl)phenethyl)-2-ethynylthiazole-4-carboxamide]: the EC50 lay in the range of 200 to 1000 nM.

Regarding `C#Cc1nc(NC(=O)N2Cc3ccc(-c4cccc5ncsc45)cc3C2)cs1` [Compound B4, 5-(Benzo[d]thiazol-7-yl)-N-(2-ethynylthiazol-4-yl)isoindoline-2-carboxamide], the EC50 lay in the range of 200 to 1000 nM.

On to `C#Cc1nc(C(=O)N2CCc3ccccc3C2)cs1` [Compound D30, (3,4-Dihydroisoquinolin-2(1H)-yl)(2-ethynylthiazol-4-yl)methanone], for which the EC50 is 200 to 1000 nM.
